Laboratory results published in US11753407B2, “Compounds for treating spinal muscular atrophy” (PTC Therapeutics, Inc., priority 2012, dated 2023).

Assays:
[1] = test system: SMN2 minigene mRNA (SMN2-A minigene) in HEK293H cells; assay: SMN2 minigene mRNA splicing RT-qPCR assay in cultured cells; format: cell-based, human; details: Homo sapiens, HEK293-H; concentration increasing full length SMN2 mRNA 1.5-fold relative to vehicle-treated cells; HEK293H cells with SMN2-A minigene, 24 hours, 7-point concentration data; read-out: EC1.5x for production of full length SMN2 mRNA
Outline: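 Potency reflects the concentration that lifts full-length SMN2 minigene mRNA 1.5-fold above vehicle in stably transfected HEK293H cells after 24 h of treatment. Transcript abundance came from RT-qPCR as (1+E)^−Ct, normalized to GAPDH; endogenous SMN1/SMN2 are not detected.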

[2] = test system: Smn protein in SMA patient fibroblast cells (GM03813); assay: Smn protein assay in cultured cells (SMN HTRF); format: cell-based, human; details: SMA patient fibroblast cells, 48 hours; for maximum fold (Fold) increase of Smn protein: 7-point concentration data, fold relative to vehicle control; for EC1.5x for Smn protein expression: 7-point concentration curve, SMN HTRF, concentration producing 1.5 times Smn protein vs DMSO vehicle control
Outline: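 Smn protein abundance in treated SMA fibroblasts was measured by HTRF after 48 h compound exposure. The reported EC1.5× is the concentration producing 1.5 times vehicle Smn levels.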

melting point	Structure (SMILES)	EC (1.5-fold increase) [1]	maximum fold (Fold) increase of Smn protein [2]	EC1.5x for Smn protein expression [2]
255 to 260 °C	Cc1cn2ccc(-c3cc(=O)n4cc(C5CCN(C)CC5)ccc4n3)cc2n1 [Compound 559, 2-(2-methylimidazo[1,2-a]pyridin-7-yl)-7-(1-methylpiperidin-4-yl)-4H-pyrido[1,2-a]pyrimidin-4-one]	1 to 3 µM	* (A maximum fold increase of ≤1.2 is indicated by one star (*))	
229 to 233 °C	CCN1CCC(c2ccc3nc(-c4ccn5cc(C)nc5c4)cc(=O)n3c2)CC1 [Compound 560, 7-(1-ethylpiperidin-4-yl)-2-(2-methylimidazo[1,2-a]pyridin-7-yl)-4H-pyrido[1,2-a]pyrimidin-4-one]	1 to 3 µM	* (A maximum fold increase of ≤1.2 is indicated by one star (*))	
210 to 219 °C	Cc1cn2nc(-c3cc(=O)n4cc(N5CCN[C@@H](C)C5)cc(C)c4n3)cc2c(C)n1 [Compound 561, 2-(4,6-dimethylpyrazolo[1,5-a]pyrazin-2-yl)-9-methyl-7-[(3S)-3-methylpiperazin-1-yl]-4H-pyrido[1,2-a]pyrimidin-4-one]	< 0.1 µM	**** (a fold increase between >1.5 and ≤1.65 is indicated by four stars (****))	**** (an EC1.5x≤0.3 μM is indicated by four stars (****))
273 to 283 °C	Cc1cn2nc(-c3cc(=O)n4cc(N5C[C@@H](C)N[C@@H](C)C5)cc(C)c4n3)cc2c(C)n1 [Compound 562, 7-[(3R,5S)-3,5-dimethylpiperazin-1-yl]-2-(4,6-dimethylpyrazolo[1,5-a]pyrazin-2-yl)-9-methyl-4H-pyrido[1,2-a]pyrimidin-4-one]	0.3 to 1 µM	** (a fold increase between >1.2 and ≤1.35 is indicated by two stars (**))	
244 to 253 °C	Cc1cn2nc(-c3cc(=O)n4cc(N5CCN(C)[C@@H](C)C5)cc(C)c4n3)cc2c(C)n1 [Compound 563, 7-[(3S)-3,4-dimethylpiperazin-1-yl]-2-(4,6-dimethylpyrazolo[1,5-a]pyrazin-2-yl)-9-methyl-4H-pyrido[1,2-a]pyrimidin-4-one]	0.1 to 0.3 µM	***** (a fold increase >1.65 is indicated by five stars (*****))	**** (an EC1.5x≤0.3 μM is indicated by four stars (****))
297 to 310 °C	Cc1cn2nc(-c3cc(=O)n4cc(N5C[C@@H](C)N(C)[C@@H](C)C5)cc(C)c4n3)cc2c(C)n1 [Compound 564, 2-(4,6-dimethylpyrazolo[1,5-a]pyrazin-2-yl)-9-methyl-7-[(3R,5S)-3,4,5-trimethylpiperazin-1-yl]-4H-pyrido[1,2-a]pyrimidin-4-one]	1 to 3 µM	* (A maximum fold increase of ≤1.2 is indicated by one star (*))	
235 to 237 °C	Cn1cc2cc(-c3cc(=O)n4cc(C5CCNCC5)ncc4n3)ccc2n1 [Compound 566, 2-(2-methyl-2H-indazol-5-yl)-7-(piperidin-4-yl)-4H-pyrazino[1,2-a]pyrimidin-4-one]	< 0.1 µM	***** (a fold increase >1.65 is indicated by five stars (*****))	**** (an EC1.5x≤0.3 μM is indicated by four stars (****))
275 to 277 °C	CN1CCC(c2cn3c(=O)cc(-c4ccc5nn(C)cc5c4)nc3cn2)CC1 [Compound 567, 2-(2-methyl-2H-indazol-5-yl)-7-(1-methylpiperidin-4-yl)-4H-pyrazino[1,2-a]pyrimidin-4-one]	0.1 to 0.3 µM	**** (a fold increase between >1.5 and ≤1.65 is indicated by four stars (****))	*** (an EC1.5× between >0.3 μM and ≤1 μM is indicated by three stars (***))
198 to 200 °C	CCN1CCC(c2cn3c(=O)cc(-c4ccc5nn(C)cc5c4)nc3cn2)CC1 [Compound 568, 7-(1-ethylpiperidin-4-yl)-2-(2-methyl-2H-indazol-5-yl)-4H-pyrazino[1,2-a]pyrimidin-4-one]	< 0.1 µM	***** (a fold increase >1.65 is indicated by five stars (*****))	**** (an EC1.5x≤0.3 μM is indicated by four stars (****))
230 to 232 °C	Cn1cc2cc(-c3cc(=O)n4cc(C5CCN(CCO)CC5)ncc4n3)ccc2n1 [Compound 569, 7-[1-(2-hydroxyethyl)piperidin-4-yl]-2-(2-methyl-2H-indazol-5-yl)-4H-pyrazino[1,2-a]pyrimidin-4-one]	< 0.1 µM	***** (a fold increase >1.65 is indicated by five stars (*****))	**** (an EC1.5x≤0.3 μM is indicated by four stars (****))
206 to 208 °C	Cc1cn2nc(-c3cc(=O)n4cc(N5CCC(CN(C)C)CC5)ccc4n3)cc2c(C)n1 [Compound 570, 7-{4-[(dimethylamino)methyl]piperidin-1-yl}-2-(4,6-dimethylpyrazolo[1,5-a]pyrazin-2-yl)-4H-pyrido[1,2-a]pyrimidin-4-one]	0.3 to 1 µM	**** (a fold increase between >1.5 and ≤1.65 is indicated by four stars (****))	** (an EC1.5× between >1 μM and ≤3 μM is indicated by two stars (**))
177 to 180 °C	Cc1cn2nc(-c3cc(=O)n4cc(N5CCC(CN6CCCC6)CC5)ccc4n3)cc2c(C)n1 [Compound 571, 2-(4,6-dimethylpyrazolo[1,5-a]pyrazin-2-yl)-7-[4-(pyrrolidin-1-ylmethyl)piperidin-1-yl]-4H-pyrido[1,2-a]pyrimidin-4-one]	0.3 to 1 µM	**** (a fold increase between >1.5 and ≤1.65 is indicated by four stars (****))	** (an EC1.5× between >1 μM and ≤3 μM is indicated by two stars (**))
192 to 195 °C	Cc1cn2nc(-c3cc(=O)n4cc(N5CCC(CN6CCCCC6)CC5)ccc4n3)cc2c(C)n1 [Compound 572, 2-(4,6-dimethylpyrazolo[1,5-a]pyrazin-2-yl)-7-[4-(piperidin-1-ylmethyl)piperidin-1-yl]-4H-pyrido[1,2-a]pyrimidin-4-one]	0.3 to 1 µM	**** (a fold increase between >1.5 and ≤1.65 is indicated by four stars (****))	** (an EC1.5× between >1 μM and ≤3 μM is indicated by two stars (**))
182 to 184 °C	COc1ccc(-c2cc(=O)n3cc(N4CCC(CN(C)C)CC4)ccc3n2)cc1OC [Compound 573, 2-(3,4-dimethoxyphenyl)-7-{4-[(dimethylamino)methyl]piperidin-1-yl}-4H-pyrido[1,2-a]pyrimidin-4-one]	0.3 to 1 µM	**** (a fold increase between >1.5 and ≤1.65 is indicated by four stars (****))	** (an EC1.5× between >1 μM and ≤3 μM is indicated by two stars (**))
194 to 196 °C	COc1ccc(-c2cc(=O)n3cc(N4CCC(CN5CCCC5)CC4)ccc3n2)cc1OC [Compound 574, 2-(3,4-dimethoxyphenyl)-7-[4-(pyrrolidin-1-ylmethyl)piperidin-1-yl]-4H-pyrido[1,2-a]pyrimidin-4-one]	0.3 to 1 µM	** (a fold increase between >1.2 and ≤1.35 is indicated by two stars (**))	
184 to 186 °C	COc1ccc(-c2cc(=O)n3cc(N4CCC(CN5CCCCC5)CC4)ccc3n2)cc1OC [Compound 575, 2-(3,4-dimethoxyphenyl)-7-[4-(piperidin-1-ylmethyl)piperidin-1-yl]-4H-pyrido[1,2-a]pyrimidin-4-one]	0.3 to 1 µM	*** (a fold increase between >1.35 and ≤1.5 is indicated by three stars (***))	
200 to 202 °C	Cc1cn2cc(-c3cc(=O)n4cc(C5CCN(CCO)CC5)ccc4n3)ccc2n1 [Compound 576, 7-[1-(2-hydroxyethyl)piperidin-4-yl]-2-(2-methylimidazo[1,2-a]pyridin-6-yl)-4H-pyrido[1,2-a]pyrimidin-4-one]	< 0.1 µM	***** (a fold increase >1.65 is indicated by five stars (*****))	**** (an EC1.5x≤0.3 μM is indicated by four stars (****))

Structure (SMILES)	melting point	EC (1.5-fold increase) [1]	maximum fold (Fold) increase of Smn protein [2]	EC1.5x for Smn protein expression [2]
Cc1cn2cc(-c3cc(=O)n4cc(C5=CCN(C(C)C)CC5)ccc4n3)ccc2n1 [Compound 565, 2-(2-methylimidazo[1,2-a]pyridin-6-yl)-7-[1-(propan-2-yl)-1,2,3,6-tetrahydropyridin-4-yl]-4H-pyrido[1,2-a]pyrimidin-4-one]	230 to 232 °C	< 0.1 µM	**** (a fold increase between >1.5 and ≤1.65 is indicated by four stars (****))	*** (an EC1.5× between >0.3 μM and ≤1 μM is indicated by three stars (***))
